Reference: US20210078958A1, “QUINAZOLINE DERIVATIVE AND USE THEREOF” (MEDSHINE DISCOVERY INC., priority 2017, published 2021)

Assays:
NCI-N87 cell = assay: inhibitory activity on cell proliferation (Cell-Titer-Glo), NCI-N87; format: cell-based; conditions: Homo sapiens, NCI-N87, 72 h; incubation for 3 days, Cell-Titer-Glo
Outline: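 Cells seeded at 1000 per well, then dosed by acoustic transfer from a 4 mM DMSO intermediate stock (final concentration not stated) and incubated 3 days at 37° C, 5% CO2. Viability read as ATP-dependent Cell-Titer-Glo luminescence after 30 min room-temperature equilibration and 10 min reagent incubation.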

HER2 (ErbB2) = HER2 (ErbB2) (Homo sapiens, UniProt P04626); assay: in vitro enzyme activity, HER2 (ErbB2); format: biochemical; conditions: human ErbB2, [γ-33P]ATP, poly(Glu, Tyr) substrate
Sequence of HER2 (ErbB2) (P04626 23-1255): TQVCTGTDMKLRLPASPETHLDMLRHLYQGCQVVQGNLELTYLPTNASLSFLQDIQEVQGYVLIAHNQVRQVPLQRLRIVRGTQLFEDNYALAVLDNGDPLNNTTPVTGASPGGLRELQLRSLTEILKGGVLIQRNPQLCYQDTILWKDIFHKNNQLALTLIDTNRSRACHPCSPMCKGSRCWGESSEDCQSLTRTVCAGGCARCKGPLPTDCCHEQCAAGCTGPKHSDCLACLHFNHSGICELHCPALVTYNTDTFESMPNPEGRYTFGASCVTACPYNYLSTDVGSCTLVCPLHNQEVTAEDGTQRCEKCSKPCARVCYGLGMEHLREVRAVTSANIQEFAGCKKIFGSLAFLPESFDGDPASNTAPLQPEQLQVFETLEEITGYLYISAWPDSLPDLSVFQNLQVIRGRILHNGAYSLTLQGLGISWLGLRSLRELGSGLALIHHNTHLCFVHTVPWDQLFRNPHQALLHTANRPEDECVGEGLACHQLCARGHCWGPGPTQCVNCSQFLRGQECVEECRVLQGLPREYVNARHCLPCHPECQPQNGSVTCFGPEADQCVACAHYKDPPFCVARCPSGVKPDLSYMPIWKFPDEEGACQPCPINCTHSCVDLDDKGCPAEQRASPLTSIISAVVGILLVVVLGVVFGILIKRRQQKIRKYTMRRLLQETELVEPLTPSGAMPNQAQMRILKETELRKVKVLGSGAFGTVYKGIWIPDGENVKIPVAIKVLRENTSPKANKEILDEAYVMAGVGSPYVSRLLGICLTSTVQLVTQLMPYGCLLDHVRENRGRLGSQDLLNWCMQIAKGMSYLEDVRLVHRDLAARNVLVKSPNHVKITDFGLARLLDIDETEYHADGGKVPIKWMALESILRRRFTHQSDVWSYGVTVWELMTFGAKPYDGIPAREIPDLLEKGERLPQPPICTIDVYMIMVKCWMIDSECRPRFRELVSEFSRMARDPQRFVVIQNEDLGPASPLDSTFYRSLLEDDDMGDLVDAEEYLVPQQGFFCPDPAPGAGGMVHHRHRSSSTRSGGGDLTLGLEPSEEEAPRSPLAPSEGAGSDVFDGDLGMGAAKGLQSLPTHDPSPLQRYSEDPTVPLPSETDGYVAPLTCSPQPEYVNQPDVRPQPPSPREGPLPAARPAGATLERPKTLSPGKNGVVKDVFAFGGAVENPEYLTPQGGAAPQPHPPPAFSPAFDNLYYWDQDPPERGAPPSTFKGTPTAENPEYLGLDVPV
Outline: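 Radiometric filter-binding assay: human ErbB1, ErbB2 or ErbB4 (4-20 ng) with poly(Glu,Tyr) 4:1 substrate, MnCl2 and [γ-33P]ATP, 10 min at 30 °C, stopped with 3% phosphoric acid. Incorporated 33P counted by scintillation and compared with internal control CPM.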

CYP3A4 = biological target: T1, CYP3A4 (Homo sapiens, UniProt P08684); assay: inhibition of CYP enzyme activity in human liver microsome, CYP3A4; format: in vitro ADME
T1 construct: in the assay of CYP enzyme activity in human liver microsome; from tissue; host or cells: human liver microsome
T1 sequence (P08684 whole entry): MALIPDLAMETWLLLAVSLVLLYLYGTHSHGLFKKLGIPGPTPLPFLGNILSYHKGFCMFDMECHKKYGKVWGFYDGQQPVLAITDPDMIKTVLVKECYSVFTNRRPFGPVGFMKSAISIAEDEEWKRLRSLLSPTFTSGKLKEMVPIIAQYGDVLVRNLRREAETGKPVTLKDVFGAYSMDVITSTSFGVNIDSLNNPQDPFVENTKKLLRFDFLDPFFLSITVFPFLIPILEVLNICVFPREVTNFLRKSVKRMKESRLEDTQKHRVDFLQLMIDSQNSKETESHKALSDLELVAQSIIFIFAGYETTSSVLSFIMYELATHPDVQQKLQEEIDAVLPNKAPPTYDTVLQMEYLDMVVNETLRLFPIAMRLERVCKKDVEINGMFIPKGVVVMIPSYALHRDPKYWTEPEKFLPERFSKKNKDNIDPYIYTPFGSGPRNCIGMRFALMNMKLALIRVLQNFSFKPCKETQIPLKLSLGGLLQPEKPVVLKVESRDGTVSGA
Excerpt: The results of the compounds disclosed herein and the reference compound Poziotinib in the assay of CYP enzyme activity in human liver microsome were shown in the following table (Table 8).

[1] = test system: subcutaneous xenograft tumor of human gastric cancer NCI-N87 cells; assay: Assay Example 4: in vivo pharmacodynamics, NCI-N87 xenograft; set-up: species or system BALB/c nude mouse; conditions: for Tumor volume (mm3) (Day 28): NCI-N87 xenograft, Mean + SEM; for T/C (%) / TGI (%): day 28
Procedure: Purpose of the assay: to evaluate the in vivo efficacy of test compounds disclosed herein on subcutaneous xenograft tumor of human gastric cancer NCI-N87 cells in a BALB/c nude mouse model.
Animals of the assay: female BALB/c nude mice, 6-8 weeks old, weighted 18-22 grams; supplier: Shanghai Ling Chang Biotechnology Co., Ltd.
Human gastric cancer NCI-N87 cells were cultured in monolayer in vitro. The culture conditions were RPMI-1640 medium plus 10% fetal bovine serum, 100 U/mL penicillin, 100 U/mL streptomycin and 2 mM glutamine, 37° C., 5% CO2. The passaging was performed by conventional digestion with trypsin-EDTA twice a week. When the cell saturation was 80%-90%, the cells were collected, counted and inoculated.
0.2 mL (10×10^6) of NCI-N87 cells (PBS+Matrigel, 1:1) were inoculated subcutaneously on the right back of each mouse. When the average tumor volume reached 158 mm^3, administration to each group was started.
The test compounds were formulated into a 0.04 mg/mL and 0.08 mg/mL clear solution in and the solvents of 10% NMP (N-methylpyrrolidone)+10% ethylene glycol stearate+80% water.
The assay index is to investigate whether tumor growth is inhibited, delayed or cured. Tumor diameter was measured twice a week with a vernier caliper. The calculation formula of tumor volume is: V=0.5a×b^2, wherein a and b represent the long and short diameters of tumor, respectively.
The antitumor efficacy of the compounds were evaluated by TGI (%) or tumor proliferation rate T/C (%). TGI (%) reflects the tumor growth inhibition rate. TGI (%) is calculated as follows: TGI (%)=[1−(average tumor volume at the end of administration for a certain treatment group−average tumor volume at the beginning of administration for this treatment group)/(average tumor volume at the end of treatment for a solvent control group−average tumor volume at the beginning of administration for this solvent control group)]×100%.
Tumor proliferation rate T/C (%): the calculation formula is as follows: T/C (%)=average tumor volume at the end of administration for a certain treatment group/average tumor volume at the end of treatment for the solvent control group×100%.
Statistical analysis included the mean and standard error (SEM) of tumor volume at each time point in each group (See Table 5-1 for specific data). […] The comparison between two groups was analyzed by T-test, and the comparison among three or more groups was analyzed by one-way ANOVA. […] All data analysis was carried out with SPSS 17.0. p<0.05 was considered a significant difference.

SMILES | IC50 (NCI-N87 cell) [nM] | IC50 (HER2 (ErbB2)) [nM] | IC50 (CYP3A4) [nM] | inhibition of CYP enzyme CYP3A4 (CYP3A4) | Tumor volume (mm3) (Day 28) ([1]; 0.4 mg/kg) | T/C (%) ([1]; 0.4 mg/kg) | TGI (%) ([1]; 0.4 mg/kg) | Tumor volume (mm3) (Day 28) ([1]; 0.8 mg/kg) | T/C (%) ([1]; 0.8 mg/kg) | TGI (%) ([1]; 0.8 mg/kg)
C=CC(=O)N1[C@@H]2CC[C@H]1C[C@H](Nc1cc3c(Nc4ccc(Cl)c(Cl)c4F)ncnc3cc1OC)C2 [Example 38] | 0.46 | 5 | > 50000 | no inhibitory activity | 47 ± 13 | 7.51 | 123.72 | 15 ± 3 | 2.40 | 130.56
C=CC(=O)N1[C@@H]2CC[C@H]1C[C@H](Oc1cc3c(Nc4ccc(Cl)c(Cl)c4F)ncnc3cc1OC)C2 [Example 8] | 0.28 | 5.5 | – | – | – | – | – | – | – | –
C=CC(=O)N1CCC(Oc2cc3c(Nc4ccc(Cl)c(Cl)c4F)ncnc3cc2OC)CC1 [Poziotinib, reference compound] | – | – | > 50000 | no inhibitory activity | 84 ± 9 | 13.42 | 115.81 | 28 ± 8 | 4.47 | 127.78
